From ChEMBL document CHEMBL5236624, “Synthesis, Characterization, and Application of Muscarinergic M3 Receptor Ligands Linked to Fluorescent Dyes” (J Med Chem, 2022)
Calls of active or inactive are those of the source. No cut-off for these calls is given here.

Key:
[1] = species on record: Homo sapiens; test: Selectivity ratio, Ki for displacement of [3H]N-methylscopolamine from human muscarinic M5 receptor expressed in human HEK293T cell membranes to Ki for displacement of [3H]N-methylscopolamine from human muscarinic M3 receptor expressed in human HEK293T cell membranes
[2] = biological target: T1, Muscarinic acetylcholine receptor M3 (Homo sapiens, UniProt P20309); test: Binding affinity to human muscarinic M3 expressed in CHO cells assessed as association rate constant incubated for 0.5 to 36 mins in presence of atropine by flow cytometry; format: cell-based; conditions: time lower 0.5 min, time upper […]
Target sequence in this assay (P20309 whole entry, looked up): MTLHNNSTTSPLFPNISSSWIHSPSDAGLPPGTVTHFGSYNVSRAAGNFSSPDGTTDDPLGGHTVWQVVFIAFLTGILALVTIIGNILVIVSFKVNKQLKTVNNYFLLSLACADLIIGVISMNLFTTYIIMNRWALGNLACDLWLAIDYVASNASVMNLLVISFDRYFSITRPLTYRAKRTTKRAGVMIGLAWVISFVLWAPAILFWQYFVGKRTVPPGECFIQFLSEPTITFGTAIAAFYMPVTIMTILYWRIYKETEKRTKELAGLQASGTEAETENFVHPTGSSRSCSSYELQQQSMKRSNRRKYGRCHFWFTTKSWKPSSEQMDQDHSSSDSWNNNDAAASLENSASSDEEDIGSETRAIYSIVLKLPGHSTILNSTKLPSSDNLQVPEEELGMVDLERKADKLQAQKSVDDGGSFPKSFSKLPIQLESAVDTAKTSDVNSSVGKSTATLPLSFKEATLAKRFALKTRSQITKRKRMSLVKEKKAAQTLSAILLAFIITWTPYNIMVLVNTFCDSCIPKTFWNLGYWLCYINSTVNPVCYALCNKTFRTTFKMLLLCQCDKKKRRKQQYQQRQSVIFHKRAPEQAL

[3] = biological target: T1, Muscarinic acetylcholine receptor M3; test: Binding affinity to human muscarinic M3 receptor expressed in CHO cells assessed as binding to cell membrane at 100 nM measured for 60 mins in presence of atropine by Hoechst H33342 staining based confocal microscopy; format: cell membranes
Target sequence in this assay (P20309 whole entry, looked up): as above

[4] = biological target: T1, Muscarinic acetylcholine receptor M3; test: Displacement of tiotropium bromide from human muscarinic M3 receptor expressed in CHO cells incubated for 4 hrs by flow cytometric competition binding assay; format: cell-based
Target sequence in this assay (P20309 whole entry): as the sequence (P20309 whole entry, looked up) above

[5] = species on record: Homo sapiens; test: Selectivity ratio, Ki for displacement of [3H]N-methylscopolamine from human muscarinic M4 receptor expressed in human HEK293T cell membranes to Ki for displacement of [3H]N-methylscopolamine from human muscarinic M3 receptor expressed in human HEK293T cell membranes
[6] = biological target: T1, Muscarinic acetylcholine receptor M3; test: Binding affinity to human muscarinic M3 receptor expressed in CHO cells assessed as binding to cell membrane at 60 nM measured for 60 mins by Hoechst H33342 staining based confocal microscopy; format: cell membranes
Target sequence in this assay (P20309 whole entry, looked up): as above

[7] = biological target: T2, Muscarinic acetylcholine receptor M1 (Homo sapiens, UniProt P11229); test: Displacement of [3H]N-methylscopolamine from human muscarinic M1 receptor expressed in human HEK293T cell membranes by radioligand competition binding based analysis; set-up: species or system Cell membrane
T2 sequence (P11229 whole entry): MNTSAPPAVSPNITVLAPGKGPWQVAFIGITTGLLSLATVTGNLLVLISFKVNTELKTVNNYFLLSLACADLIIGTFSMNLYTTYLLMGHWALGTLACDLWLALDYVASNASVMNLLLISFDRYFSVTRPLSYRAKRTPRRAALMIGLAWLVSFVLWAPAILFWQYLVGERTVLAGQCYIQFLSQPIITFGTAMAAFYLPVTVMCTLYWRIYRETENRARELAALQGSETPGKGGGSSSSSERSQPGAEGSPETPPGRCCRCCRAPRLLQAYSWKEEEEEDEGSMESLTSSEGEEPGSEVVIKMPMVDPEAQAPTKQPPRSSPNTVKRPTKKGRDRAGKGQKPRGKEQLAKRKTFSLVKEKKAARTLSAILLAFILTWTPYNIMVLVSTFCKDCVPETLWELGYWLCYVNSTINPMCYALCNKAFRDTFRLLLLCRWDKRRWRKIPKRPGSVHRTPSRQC

[8] = biological target: T1, Muscarinic acetylcholine receptor M3; test: Binding affinity to human muscarinic M3 expressed in CHO cells assessed as dissociation rate constant preincubated for 20 mins in dark followed by atropine addition and measured after 1 to 130 mins by flow cytometry; format: cell-based; conditions: time lower […], time upper 150.0 min
Target sequence in this assay (P20309 whole entry, looked up): as the sequence (P20309 whole entry, looked up) above

[9] = biological target: T1, Muscarinic acetylcholine receptor M3; test: Binding affinity to human muscarinic M3 receptor expressed in human HEK293T cells co-expressing beta-arrestin2 assessed as inhibition of carbachol-induced beta-arrestin recruitment preincubated for 30 mins followed by carbachol stimulation and measured after 90 mins by PathHunter assay; format: cell-based
Target sequence in this assay (P20309 whole entry): as the sequence (P20309 whole entry, looked up) above

[10] = biological target: T1, Muscarinic acetylcholine receptor M3; test: Binding affinity to saturated human muscarinic M3 expressed in CHO cells assessed as dissociation constant incubated for 2 hrs in presence of atropine by flow cytometry; format: cell-based
Target sequence in this assay (P20309 whole entry): as the sequence (P20309 whole entry, looked up) above

[11] = biological target: T3, Muscarinic acetylcholine receptor M2 (Homo sapiens, UniProt P08172); test: Displacement of [3H]N-methylscopolamine from human muscarinic M2 receptor expressed in human HEK293T cell membranes by radioligand competition binding based analysis; set-up: species or system Cell membrane
T3 sequence (P08172 whole entry): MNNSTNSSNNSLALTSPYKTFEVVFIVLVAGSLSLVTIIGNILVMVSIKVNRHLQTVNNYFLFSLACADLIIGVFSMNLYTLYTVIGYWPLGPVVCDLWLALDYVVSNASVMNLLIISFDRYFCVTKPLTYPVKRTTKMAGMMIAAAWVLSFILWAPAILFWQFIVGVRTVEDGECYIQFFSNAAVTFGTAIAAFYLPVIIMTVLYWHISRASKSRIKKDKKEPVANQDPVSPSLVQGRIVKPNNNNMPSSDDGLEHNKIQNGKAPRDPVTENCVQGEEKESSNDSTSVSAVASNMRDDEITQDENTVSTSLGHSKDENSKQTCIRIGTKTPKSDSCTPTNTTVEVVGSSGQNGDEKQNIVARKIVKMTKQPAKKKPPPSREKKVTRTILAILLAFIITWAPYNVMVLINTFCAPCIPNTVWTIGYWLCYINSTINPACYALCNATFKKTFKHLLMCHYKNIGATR

[12] = biological target: T1, Muscarinic acetylcholine receptor M3; test: Displacement of [3H]N-methylscopolamine from human muscarinic M3 receptor expressed in human HEK293T cell membranes by radioligand competition binding based analysis; set-up: species or system Cell membrane
Target sequence in this assay (P20309 whole entry): as the sequence (P20309 whole entry, looked up) above

[13] = biological target: T4, Muscarinic acetylcholine receptor M5 (Homo sapiens, UniProt P08912); test: Displacement of [3H]N-methylscopolamine from human muscarinic M5 receptor expressed in human HEK293T cell membranes by radioligand competition binding based analysis; set-up: species or system Cell membrane
T4 sequence (P08912 whole entry): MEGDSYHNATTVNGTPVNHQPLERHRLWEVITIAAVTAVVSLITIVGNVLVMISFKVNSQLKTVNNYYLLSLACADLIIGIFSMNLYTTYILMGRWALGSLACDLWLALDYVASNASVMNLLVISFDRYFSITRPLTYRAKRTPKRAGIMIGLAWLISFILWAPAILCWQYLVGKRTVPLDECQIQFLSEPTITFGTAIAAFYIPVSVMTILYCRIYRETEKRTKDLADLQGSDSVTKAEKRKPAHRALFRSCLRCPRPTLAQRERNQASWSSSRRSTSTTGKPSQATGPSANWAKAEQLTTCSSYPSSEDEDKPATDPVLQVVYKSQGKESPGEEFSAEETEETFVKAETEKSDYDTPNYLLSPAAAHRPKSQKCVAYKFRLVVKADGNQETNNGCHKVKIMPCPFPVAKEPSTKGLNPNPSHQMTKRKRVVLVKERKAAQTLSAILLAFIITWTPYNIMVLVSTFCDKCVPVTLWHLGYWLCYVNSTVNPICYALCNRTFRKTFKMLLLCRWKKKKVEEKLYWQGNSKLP

[14] = biological target: T2, Muscarinic acetylcholine receptor M1; test: Binding affinity to saturated human muscarinic M1 expressed in CHO cells assessed as dissociation constant incubated for 2 hrs in presence of atropine by flow cytometry; format: cell-based
[15] = biological target: T1, Muscarinic acetylcholine receptor M3; test: Binding affinity to human muscarinic M3 receptor expressed in human HEK293T cells assessed as inhibition of carbachol-induced G-protein signaling by measuring inositol accumulation preincubated for 30 mins followed by carbachol stimulation and measured after 90 mins by HTRF assay; format: cell-based
Target sequence in this assay (P20309 whole entry): as the sequence (P20309 whole entry, looked up) above

[16] = biological target: T5, Muscarinic acetylcholine receptor M4 (Homo sapiens, UniProt P08173); test: Displacement of [3H]N-methylscopolamine from human muscarinic M4 receptor expressed in human HEK293T cell membranes by radioligand competition binding based analysis; set-up: species or system Cell membrane
T5 sequence (P08173 whole entry): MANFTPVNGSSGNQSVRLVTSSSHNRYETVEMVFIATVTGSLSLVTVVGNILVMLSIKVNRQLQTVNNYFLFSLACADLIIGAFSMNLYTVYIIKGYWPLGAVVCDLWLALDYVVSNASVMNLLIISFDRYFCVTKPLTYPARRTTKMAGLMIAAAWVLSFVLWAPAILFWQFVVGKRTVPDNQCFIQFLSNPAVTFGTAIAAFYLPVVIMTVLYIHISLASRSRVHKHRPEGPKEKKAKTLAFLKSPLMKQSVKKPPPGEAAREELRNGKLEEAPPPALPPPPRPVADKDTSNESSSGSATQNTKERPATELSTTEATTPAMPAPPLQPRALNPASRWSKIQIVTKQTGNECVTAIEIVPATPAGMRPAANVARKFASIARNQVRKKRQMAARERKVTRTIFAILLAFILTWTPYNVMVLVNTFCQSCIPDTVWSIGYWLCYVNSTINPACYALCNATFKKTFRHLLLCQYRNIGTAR

[17] = biological target: T2, Muscarinic acetylcholine receptor M1; test: Binding affinity to saturated human muscarinic M1 expressed in CHO cells assessed as dissociation constant incubated for 2 hrs by flow cytometry; format: cell-based
[18] = biological target: T1, Muscarinic acetylcholine receptor M3; test: Binding affinity to human muscarinic M3 receptor expressed in CHO cells assessed as binding to cell membrane at 60 nM measured for 60 mins in presence of atropine by Hoechst H33342 staining based confocal microscopy; format: cell membranes
Target sequence in this assay (P20309 whole entry, looked up): as the sequence (P20309 whole entry, looked up) above

[19] = system: CHO-K1; test: Cytotoxicity against Chinese hamster CHO-K1 cells assessed as reduction in cell viability upto 1 uM by crystal violet staining based multiplate reader analysis; format: toxicity, Cricetulus griseus; conditions: cho-k1, 1 µM
[20] = biological target: T1, Muscarinic acetylcholine receptor M3; test: Binding affinity to human muscarinic M3 receptor expressed in CHO cells assessed as binding to cell membrane at 100 nM measured for 60 mins by Hoechst H33342 staining based confocal microscopy; format: cell membranes
Target sequence in this assay (P20309 whole entry, looked up): as the sequence (P20309 whole entry, looked up) above

[21] = biological target: T1, Muscarinic acetylcholine receptor M3; test: Displacement of atropine from human muscarinic M3 receptor expressed in CHO cells incubated for 2 hrs by flow cytometric competition binding assay; format: cell-based
Target sequence in this assay (P20309 whole entry): as the sequence (P20309 whole entry, looked up) above

[22] = biological target: T1, Muscarinic acetylcholine receptor M3; test: Binding affinity to saturated human muscarinic M3 expressed in CHO cells assessed as dissociation constant incubated for 2 hrs by flow cytometry; format: cell-based
[23] = biological target: T1, Muscarinic acetylcholine receptor M3; test: Binding affinity to human muscarinic M3 expressed in CHO cells assessed as association rate constant incubated for 1 to 75 mins in presence of atropine by flow cytometry; format: cell-based; conditions: time 1-75 min
[24] = biological target: T1, Muscarinic acetylcholine receptor M3; test: Binding affinity to human muscarinic M3 expressed in CHO cells assessed as dissociation rate constant preincubated for 55 mins in dark followed by atropine addition and measured after 1 to 152 mins by flow cytometry; format: cell-based; conditions: time 56-207 min

Row | Activity [3] | Ki ([4]; read-out: Ki) [nM] | Activity [6] | Ki [7] [nM] | IC50 [9] [nM] | Kd [10] [nM] | Ki [11] [nM] | Ki [12] [nM] | Ki [13] [nM] | Kd [14] [nM] | IC50 [15] [nM] | Ki [16] [nM] | Kd [17] [nM] | Activity [18] | Activity [20] | Ki ([21]; read-out: Ki) [nM] | Ki ([21]; read-out: pKi (converted)) [nM] | Structure (SMILES) | Selectivity ratio [1] | Selectivity ratio [5] | Activity [19] | other results
1 | inactive | 0.15 | Active | 1.5 | 430 | 24 | 11 | 1.2 | 7.4 | 8.3 | 130 | 1.4 | 7.3 | inactive | Active | 2.3 | 2.19 | CN(C)c1ccc2c(-c3ccc(-c4cn(CCCCCn5cc(CCCCCCN6CCC(COC(=O)Nc7ccc(F)cc7-c7ccc(F)c(Cl)c7)CC6)nn5)nn4)cc3C(=O)[O-])c3ccc(=[N+](C)C)cc-3oc2c1 | 6.2 | 1.2 | Non-Toxic | ka [2]: 0.37 min⁻¹; Ki ([4]; read-out: pKi (converted)): 0.132 nM; Kdiss [8]: 0.0004 s⁻¹; Kd [22]: 23 nM
2 | inactive | 0.14 | Active | 0.73 | 450 | 49.7 | 9.6 | 14 | 5.5 | 6.5 | 300 | 0.87 | 6 | inactive | Active | 2.4 | 2.14 | CC1(C)C(/C=C/C=C/C=C2/N(CCCCS(=O)(=O)O)c3ccccc3C2(C)C)=[N+](CCCCCC(=O)NCCCCCCCCN2CCC(OC(=O)Nc3ccc(F)cc3-c3ccc(F)c(Cl)c3)CC2)c2ccc(S(=O)(=O)[O-])cc21 | 0.39 | 0.06 | Non-Toxic | ka [23]: 0.09 min⁻¹; Kdiss [24]: 0.000433 s⁻¹; Kd [22]: 54 nM
